Data published in US20250312258A1, “2,3-PYRROLIDINEDIONE CONJUGATES AND METHODS OF USING THEREOF” (North Carolina State University, priority 2022, published 2025).
In brackets after ≈: the same amount, converted by molar mass. Like-named read-outs stand apart in the source and are kept apart here.

Legend:
Group B Strep = test: MIC against Group B Strep strain panel; format: cell-based
vanA VRE 700221 = test: MIC against vanA VRE 700221; format: cell-based, Enterococcus spp.; conditions: Enterococcus, VRE
VSE 2127 = test: MIC against VSE 2127; format: cell-based, Enterococcus spp.; conditions: Enterococcus, read-out: MIC (VSE 2127)
MSSA = test: MIC against MSSA strain panel; format: cell-based; conditions: Staphylococcus aureus, the 4th table
MRSA 33591 = test: Broth microdilution MIC, MRSA 33591; format: cell-based; conditions: Staphylococcus aureus, read-out: MIC (MRSA 33591)
VRSA = test: MIC against VRSA strain panel (VRS/NRS strains); format: cell-based; conditions: Staphylococcus aureus
E. coli = test: MIC against E. coli strains; format: cell-based
VRE = test: MIC / in vitro activity against VRE strain panel; format: cell-based, Enterococcus spp.

Q: For `CN[C@H](CC(C)C)C(=O)N[C@H]1C(=O)N[C@@H](CC(N)=O)C(=O)N[C@H]2C(=O)N[C@H]3C(=O)N[C@H](C(=O)N[C@H](C(=O)O)c4cc(O)cc(O)c4-c4cc3ccc4O)[C@H](O)c3ccc(c(Cl)c3)Oc3cc2cc(c3O[C@@H]2O[C@H](CO)[C@@H](O)[C@H](O)[C@H]2O[C@H]2C[C@](C)(N)[C@H](O)[C@H](C)O2)Oc2ccc(cc2Cl)[C@H]1O` [Vancomycin, vancomycin, reference compound], which MIC (Group B Strep; 2008-57 Group B Strep, the 9th table) is on record?
A: 0.5 µg/mL (≈ 0.345 µM)

Q: And the MIC (Group B Strep; 2008-70 Group B Strep, the 9th table)?
A: 0.5 µg/mL (≈ 0.345 µM)

Q: And the MIC (Group B Strep; 2008-87 Group B Strep, CA-MHB w/5% LHB, the 4th table)?
A: 0.5 µg/mL (≈ 0.345 µM)

Q: What about the MIC (Group B Strep; 2008-115 Group B Strep, the 9th table) of the same compound?
A: 0.5 µg/mL (≈ 0.345 µM)

Q: What about the MIC (Group B Strep; 2009-20 Group B Strep, the 9th table) of the same compound?
A: 0.5 µg/mL (≈ 0.345 µM)

Q: And the MIC (Group B Strep; 2009-40 Group B Strep, the 9th table)?
A: 0.5 µg/mL (≈ 0.345 µM)

Q: What about the MIC (Group B Strep; 2009-43 Group B Strep, the 9th table) of the same compound?
A: 0.5 µg/mL (≈ 0.345 µM)

Q: What about the MIC (Group B Strep; 2009-51 Group B Strep, the 9th table) of the same compound?
A: 0.5 µg/mL (≈ 0.345 µM)

Q: And the MIC (Group B Strep; 2009-57 Group B Strep, the 9th table)?
A: 0.5 µg/mL (≈ 0.345 µM)

Q: And the MIC (Group B Strep; 2009-59 Group B Strep, the 9th table)?
A: 0.5 µg/mL (≈ 0.345 µM)

Q: And the MIC (Group B Strep; 2009-60 Group B Strep, the 9th table)?
A: 0.5 µg/mL (≈ 0.345 µM)

Q: And the MIC (Group B Strep; 2009-61 Group B Strep, CA-MHB w/5% LHB, the 4th table)?
A: 0.5 µg/mL (≈ 0.345 µM)

Q: What about the MIC (Group B Strep; 2009-62 Group B Strep, CA-MHB w/5% LHB, the 4th table) of the same compound?
A: 0.5 µg/mL (≈ 0.345 µM)

Q: And the MIC (Group B Strep; J4182 Group B Strep, the 9th table)?
A: 0.25 µg/mL (≈ 0.173 µM)

Q: What about the MIC (Group B Strep; J4183 Group B Strep, the 9th table) of the same compound?
A: 0.5 µg/mL (≈ 0.345 µM)

Q: And the MIC (Group B Strep; J4185 Group B Strep, the 9th table)?
A: 0.5 µg/mL (≈ 0.345 µM)

Q: And the MIC (Group B Strep; J4186 Group B Strep, the 9th table)?
A: 0.5 µg/mL (≈ 0.345 µM)

Q: What about the MIC (Group B Strep; J4222 Group B Strep, the 9th table) of the same compound?
A: 0.5 µg/mL (≈ 0.345 µM)

Q: And the MIC (vanA VRE 700221)?
A: 512 µg/mL (≈ 353 µM)

Q: What about the MIC (vanA VRE 700221; read-out: MIC (vanA VRE 700221)) of the same compound?
A: 512 µg/mL (≈ 353 µM)

Q: And the MIC (VSE 2127)?
A: 2 µg/mL (≈ 1.38 µM)

Q: And the MIC (MSSA; VGP16-94 MSSA)?
A: 0.5 µg/mL (≈ 0.345 µM)

Q: And the MIC (MSSA; VGP16-95 MSSA)?
A: 0.5 µg/mL (≈ 0.345 µM)

Q: What about the MIC (MSSA; VGP16-96 MSSA) of the same compound?
A: 0.5 µg/mL (≈ 0.345 µM)

Q: And the MIC (MSSA; VGP16-97 MSSA)?
A: 0.5 µg/mL (≈ 0.345 µM)

Q: And the MIC (MSSA; VGP16-98 MSSA)?
A: 0.5 µg/mL (≈ 0.345 µM)

Q: And the MIC (MSSA; VGP16-99 MSSA)?
A: 1 µg/mL (≈ 0.69 µM)

Q: And the MIC (MSSA; VGP16-100 MSSA)?
A: 0.5 µg/mL (≈ 0.345 µM)

Q: And the MIC (MSSA; VGP16-101 MSSA)?
A: 1 µg/mL (≈ 0.69 µM)

Q: What about the MIC (MSSA; VGP16-116 MSSA) of the same compound?
A: 0.5 µg/mL (≈ 0.345 µM)

Q: And the MIC (MSSA; VGP16-117 MSSA)?
A: 0.5 µg/mL (≈ 0.345 µM)

Q: And the MIC (MRSA 33591)?
A: 2 µg/mL (≈ 1.38 µM)

Q: And the MIC (VRSA; NRS 1 / VRSA, NRS-1 (VRSA), the 3rd table)?
A: 8 µg/mL (≈ 5.52 µM)

Q: What about the MIC (VRSA; NRS 1 / VRSA, NRS-1 VRSA, the 5th table) of the same compound?
A: 8 µg/mL (≈ 5.52 µM)

Q: And the MIC (VRSA; NRS 2 / VRSA, NRS-2 VRSA, the 5th table)?
A: 1 µg/mL (≈ 0.69 µM)

Q: And the MIC (VRSA; VRSA, VRS-1 (VRSA), the 3rd table)?
A: > 64 µg/mL

Q: What about the MIC (VRSA; VRSA, VRS-1 VRSA, the 5th table) of the same compound?
A: > 64 µg/mL

Q: What about the MIC (VRSA; VRSA, VRS-2 (VRSA), the 3rd table) of the same compound?
A: 32 µg/mL (≈ 22.1 µM)

Q: What about the MIC (VRSA; VRSA, VRS-2 VRSA, the 5th table) of the same compound?
A: 32 µg/mL (≈ 22.1 µM)

Q: What about the MIC (VRSA; VRSA, VRS-3a VRSA, the 5th table) of the same compound?
A: 32 µg/mL (≈ 22.1 µM)

Q: And the MIC (VRSA; VRSA, VRS-3b VRSA, the 5th table)?
A: > 64 µg/mL

Q: What about the MIC (VRSA; VRSA, VRS-4 (VRSA), the 3rd table) of the same compound?
A: 32 µg/mL (≈ 22.1 µM)

Q: And the MIC (VRSA; VRSA, VRS-4 VRSA, the 5th table)?
A: > 64 µg/mL

Q: What about the MIC (VRSA; VRSA, VRS-5 VRSA, the 5th table) of the same compound?
A: > 64 µg/mL

Q: What about the MIC (VRSA; VRSA, VRS-6 VRSA, the 5th table) of the same compound?
A: > 64 µg/mL

Q: And the MIC (VRSA; VRSA, VRS-7 VRSA, the 5th table)?
A: > 64 µg/mL

Q: And the MIC (VRSA; VRSA, VRS-8 VRSA, the 5th table)?
A: > 64 µg/mL

Q: What about the MIC (VRSA; VRSA, VRS-9 VRSA, the 5th table) of the same compound?
A: > 64 µg/mL

Q: And the MIC (VRSA; VRSA, VRS-10 VRSA, the 5th table)?
A: > 64 µg/mL

Q: What about the MIC (VRSA; VRSA, VRS-11a VRSA, the 5th table) of the same compound?
A: > 64 µg/mL

Q: And the MIC (VRSA; VRSA, VRS-11b VRSA, the 5th table)?
A: > 64 µg/mL

Q: What about the MIC (E. coli; AR-137 E. coli, the 4th table) of the same compound?
A: >64 µg/mL

Q: What about the MIC (E. coli; Escherichia coli) of the same compound?
A: > 64 µg/mL

Q: What about the MIC (E. coli; Escherichia coli, ATCC25922) of the same compound?
A: > 64 µg/mL

Q: And the MIC (VRE; 1593 (VRE), the 3rd table)?
A: >64 µg/mL

Q: And the MIC (VRE; 1593 VRE, the 4th table)?
A: >64 µg/mL

Q: What about the MIC (VRE; 1751 (VRE), the 3rd table) of the same compound?
A: >64 µg/mL

Q: And the MIC (VRE; 1751 VRE, the 6th table)?
A: >64 µg/mL

Q: What about the MIC (VRE; 1772 VRE, the 6th table) of the same compound?
A: >64 µg/mL

Q: And the MIC (VRE; 1946 VRE, the 6th table)?
A: >64 µg/mL

Q: What about the MIC (VRE; 2059 VRE, the 6th table) of the same compound?
A: >64 µg/mL

Q: And the MIC (VRE; 2431 VRE, the 6th table)?
A: >64 µg/mL
